From patent US20250230193A1, “CYCLIC COMPOUND HAVING SELECTIVE KRAS INHIBITORY EFFECT ON HRAS AND NRAS” (CHUGAI SEIYAKU KABUSHIKI KAISHA, priority 2022, published 2025)
Where a SMILES comes first, the peptide text is derived from it. Bridges are numbered along the chain shown (N, C = ends). [ ]: non-standard residue; d: D form. The star is where a group is joined. hPhe(3-Cl-4-CF3) = N[C@@H](CCc1ccc(C(F)(F)F)c(Cl)c1)C(=O)O; NPrPhe(4-CF3) = CCCN[C@@H](Cc1ccc(C(F)(F)F)cc1)C(=O)O; NMePhe(4-Me) = CN[C@@H](Cc1ccc(C)cc1)C(=O)O; NMeGly(cPent) = CN[C@H](C(=O)O)C1CCCC1; Pro(4,4-F2) = O=C(O)[C@@H]1CC(F)(F)CN1; NMeD = CN[C@@H](CC(=O)O)C(=O)O; NMeL = CN[C@@H](CC(C)C)C(=O)O; Morpholide = C1CN(*)CCO1; Ac5c = NC1(C(=O)O)CCCC1; Aze = O=C(O)[C@@H]1CCN1; Ac4c = NC1(C(=O)O)CCC1; NEtG = CCNCC(=O)O; Sar = CNCC(=O)O

Key:
[1] = molecular target: GDP-bound HRAS wild-type protein (Homo sapiens, UniProt P01112); assay: Binding to HRAS by surface plasmon resonance (SPR), Single Cycle Kinetics
[2] = molecular target: GDP-bound NRAS wild-type protein (Homo sapiens, UniProt P01111); assay: Binding to NRAS by surface plasmon resonance (SPR), Single Cycle Kinetics
[3] = KD ratio, GDP-bound HRAS wild-type vs GDP-bound KRAS wild-type, SPR
[4] = KD ratio, GDP-bound NRAS wild-type vs GDP-bound KRAS wild-type, SPR

Chain of GDP-bound NRAS wild-type protein (P01111 whole entry): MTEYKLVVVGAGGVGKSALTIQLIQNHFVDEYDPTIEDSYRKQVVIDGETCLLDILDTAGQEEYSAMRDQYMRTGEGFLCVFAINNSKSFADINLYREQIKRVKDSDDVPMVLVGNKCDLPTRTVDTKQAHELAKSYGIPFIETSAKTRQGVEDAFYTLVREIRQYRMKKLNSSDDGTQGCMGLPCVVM
Chain of GDP-bound HRAS wild-type protein (P01112 whole entry): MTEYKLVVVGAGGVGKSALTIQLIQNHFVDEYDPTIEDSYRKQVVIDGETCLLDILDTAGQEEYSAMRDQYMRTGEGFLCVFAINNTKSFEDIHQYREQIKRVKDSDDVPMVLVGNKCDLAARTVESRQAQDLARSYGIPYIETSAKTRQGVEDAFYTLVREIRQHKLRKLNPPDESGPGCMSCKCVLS

CC[C@H](C)[C@@H]1NC(=O)[C@H](CC)N(C)C(=O)C[C@@H](C(=O)N(C)C)N(C)C(=O)[C@H](C2CCCC2)N(C)C(=O)C2(CCC2)NC(=O)[C@@H]2C[C@H](OC)CN2C(=O)[C@H](CCc2cc(F)c(C(F)(F)F)c(F)c2)NC(=O)CN(C)C(=O)[C@H](Cc2ccc(C(F)(F)F)cc2)N2CC/C=C\C[C@@H](C2=O)N(C)C(=O)CN(C)C1=O [PP1128] was tested, and the “HRAS/KRAS (ratio of KD value with respect to HRAS to KD value with respect to KRAS)” value [1, 3] was “A (a compound having 10 or more and less than 20 is denoted as A)” and the “NRAS/KRAS (ratio of KD value with respect to NRAS to KD value with respect to KRAS)” value [2, 4] was “AA (a compound having 20 or more is denoted as AA)”.
In the case of CCO[C@@H]1C[C@H]2C(=O)NC3(CC(C)(C)C3)C(=O)N(C)[C@@H](C(CC)CC)C(=O)N(C)[C@H](C(=O)N(C)C)CC(=O)N(C)[C@@H](CC(C)C)C(=O)N[C@@H]([C@@H](C)CC)C(=O)N(C)CC(=O)N(C)[C@H]3C/C=C\CCN(C3=O)[C@@H](Cc3ccc(C(F)(F)F)cc3)C(=O)N(C)CC(=O)N[C@@H](CCc3ccc(Cl)c(Cl)c3)C(=O)N2C1 [PP2176], the “HRAS/KRAS (ratio of KD value with respect to HRAS to KD value with respect to KRAS)” value ([1]; SPR, GDP-bound HRAS wild-type vs GDP-bound KRAS wild-type) is reported as “A (a compound having 10 or more and less than 20 is denoted as A)” and the “NRAS/KRAS (ratio of KD value with respect to NRAS to KD value with respect to KRAS)” value ([2]; SPR, GDP-bound NRAS wild-type vs GDP-bound KRAS wild-type) is reported as “AA (a compound having 20 or more is denoted as AA)”.
In the case of CC[C@H](C)[C@@H]1NC(=O)[C@H](CC(C)C)N(C)C(=O)C[C@@H](C(=O)N2CCOCC2)N(C)C(=O)[C@H](C2CCCC2)N(C)C(=O)C2(CCCC2)NC(=O)[C@@H]2CCCN2C(=O)[C@H](CCc2cc(F)c(C(F)(F)F)c(F)c2)NC(=O)CN(C)C(=O)[C@H](Cc2ccc(C(F)(F)F)cc2)N2CCCC[C@@H](C2=O)N(C)C(=O)[C@H](C)NC1=O [PP0543], the “HRAS/KRAS (ratio of KD value with respect to GDP-bound HRAS wild-type protein to KD value with respect to KRAS)” value ([1]; SPR) is reported as “B (a compound having 3 or more and less than 10 is denoted as B)” and the “NRAS/KRAS (ratio of KD value with respect to GDP-bound NRAS wild-type protein to KD value with respect to KRAS)” value ([2]; SPR) is reported as “B (a compound having 3 or more and less than 10 is denoted as B)”.
In the case of CCCN1C(=O)CN(C)C(=O)CN(C)C(=O)[C@H]([C@@H](C)CC)NC(=O)[C@H](CC(C)C)N(C)C(=O)C[C@@H](C(=O)N2CCOCC2)N(C)C(=O)[C@H](C2CCCC2)N(C)C(=O)C2(CCC2)NC(=O)[C@@H]2CCCN2C(=O)[C@H](CCc2ccc(C(F)(F)F)c(Cl)c2)NC(=O)CN(CC)C(=O)[C@@H]1Cc1ccc(C(F)(F)F)cc1 [PP1950] ([NMeL]I[Sar][Sar][NPrPhe(4-CF3)][NEtG][hPhe(3-Cl-4-CF3)]P[Ac4c][NMeGly(cPent)][NMeD]-Morpholide; lactam N-11), the “HRAS/KRAS (ratio of KD value for HRAS to KD value for KRAS)” value [1, 3] is reported as “C (A compound having a KD ratio of 0.1 or more and less than 3 is denoted as C)” and the “NRAS/KRAS (ratio of KD value for NRAS to KD value for KRAS)” value [2, 4] is reported as “B (a compound having 3 or more and less than 10 is denoted as B)”.
For CCC[C@H]1C(=O)N[C@@H]([C@@H](C)CC)C(=O)N(C)CC(=O)N(C)[C@H]2C/C=C\CCN(C2=O)[C@@H](Cc2ccc(C(F)(F)F)cc2)C(=O)N(C)CC(=O)N[C@@H](CCc2ccc(CC)c(Cl)c2)C(=O)N2C[C@H](OCC)C[C@H]2C(=O)NC2(CC(C)(C)C2)C(=O)N(C)[C@@H](C2CCCC2)C(=O)N(C)[C@H](C(=O)N(C)C)CC(=O)N1C [PP2848], the “HRAS/KRAS (ratio of KD value with respect to GDP-bound HRAS wild-type protein to KD value with respect to KRAS)” value ([1]; class symbols) was “A (a compound having 10 or more and less than 20 is denoted as A)” and the “NRAS/KRAS (ratio of KD value with respect to GDP-bound NRAS wild-type protein to KD value with respect to KRAS)” value ([2]; class symbols) was “A (a compound having 10 or more and less than 20 is denoted as A)”.
With CC[C@H](C)[C@@H]1NC(=O)[C@H](CC(C)C)N(C)C(=O)C[C@@H](C(=O)N2CCOCC2)N(C)C(=O)[C@H](C2CCCC2)N(C)C(=O)C2(CCC2)NC(=O)[C@@H]2[C@@H](O)CCN2C(=O)[C@H](CCc2cc(F)c(C(F)(F)F)c(F)c2)NC(=O)CN(C)C(=O)[C@H](Cc2ccc(C(F)(F)F)cc2)N2CCCC[C@@H](C2=O)N(C)C(=O)CN(C)C1=O [PP0869] the “HRAS/KRAS (ratio of KD value with respect to HRAS to KD value with respect to KRAS)” value [1, 3] was “B (a compound having 3 or more and less than 10 is denoted as B)” and the “NRAS/KRAS (ratio of KD value with respect to NRAS to KD value with respect to KRAS)” value [2, 4] was “B (a compound having 3 or more and less than 10 is denoted as B)”.
CC[C@H](C)[C@@H]1NC(=O)[C@H](CC(C)C)N(C)C(=O)C[C@@H](C(=O)N2CCOCC2)N(C)C(=O)[C@H](C2CCCC2)N(C)C(=O)C2(CCCC2)NC(=O)[C@@H]2CCCN2C(=O)[C@H](CCc2ccc(C(F)(F)F)c(Cl)c2)NC(=O)CN(CC)C(=O)[C@H](Cc2ccc(C)cc2)N(C)C(=O)CN(CC)C(=O)CN(C)C1=O [PP0029] ([NMeL]I[Sar][NEtG][NMePhe(4-Me)][NEtG][hPhe(3-Cl-4-CF3)]P[Ac5c][NMeGly(cPent)][NMeD]-Morpholide; lactam N-11) was tested, and the “HRAS/KRAS (ratio of KD for GDP-bound HRAS wild-type to KD for KRAS)” value ([1]; SPR) was “C (A compound having a KD ratio of 0.1 or more and less than 3 is denoted as C)” and the “NRAS/KRAS (ratio of KD for GDP-bound NRAS wild-type to KD for KRAS)” value ([2]; SPR) was “C (A compound having a KD ratio of 0.1 or more and less than 3 is denoted as C)”.
For CCCN1C(=O)[C@@H]2CCN2C(=O)CN(C)C(=O)[C@H]([C@@H](C)CC)NC(=O)[C@H](CC(C)C)N(C)C(=O)C[C@@H](C(=O)N2CCOCC2)NC(=O)[C@H](C2CCCC2)N(C)C(=O)C2(CCCC2)NC(=O)[C@@H]2CC(F)(F)CN2C(=O)[C@H](CCc2ccc(C(F)(F)F)c(Cl)c2)NC(=O)CN(C)C(=O)[C@@H]1Cc1ccc(C(F)(F)F)cc1 [PP0351] ([NMeL]I[Sar][Aze][NPrPhe(4-CF3)][Sar][hPhe(3-Cl-4-CF3)][Pro(4,4-F2)][Ac5c][NMeGly(cPent)]D-Morpholide; lactam N-11), the “HRAS/KRAS (ratio of KD for GDP-bound HRAS wild-type to KD for KRAS)” value ([1]; SPR) was “B (a compound having 3 or more and less than 10 is denoted as B)” and the “NRAS/KRAS (ratio of KD for GDP-bound NRAS wild-type to KD for KRAS)” value ([2]; SPR) was “C (A compound having a KD ratio of 0.1 or more and less than 3 is denoted as C)”.
